# Read-outs that look alike come from different tables or passages of the source. Residues, ends and D or L forms follow the SMILES beside them. No end group written: not given here.
# Key:
# [1] = system: Neisseria gonorrhoeae MS11 strain; test: Antibiotic susceptibility testing, disk diffusion (CLSI); format: cell-based; parameters: key: R, resistant; I, intermediate; S, susceptible; conditions: CLSI criteria, 24 h, 37°C, 5% CO2
# Experimental: (§1) Briefly, the overnight colonies (16-20 hours) were suspended and diluted in GCP broth to a concentration of optical density (OD) = 0.1 at 650 nm. The bacterial suspension was then plated onto GC agar plates using swabs, and the disks were placed on the bacterial lawn with sterile tweezers. The plates were incubated at 37°C with 5% CO2 for 24 hours. The diameter of the inhibition zone was measured to determine the susceptibility according to the criteria recommended by the CLSI standard.
# [2] = system: Neisseria gonorrhoeae MS11 adherence to ME180 endocervical epithelial cells; test: Adherence assay of GC to ME180 cells; format: cell-based; conditions: MS11 on ME180 cells, azithromycin 0.5 μg/mL, three hours
# Experimental: Cells were then lysed with 1% saponin in sterile phosphate-buffered saline (PBS) and spread onto the GCK agar plate. The number of adherent GC was counted to determine the effect of AMP.
# Non-treated GC was served as control (Ct).
# To assess the effects of AMP on adherence, MS11 was inoculated onto ME180 cells in the presence or absence of AMP for three hours. The cells were then collected and plated on GCK agar. Adherent GC were determined by colony counts. Azithromycin was used as a control for comparison.
# [3] = system: WHO gonococcal reference strain Z (WHO Z); test: Antibiotic susceptibility testing, disk diffusion (CLSI); format: cell-based, Neisseria gonorrhoeae; parameters: key: R, resistant; I, intermediate; S, susceptible; conditions: CLSI criteria, 24 h, 37°C, 5% CO2
# Experimental: as §1
# [4] = system: Neisseria gonorrhoeae MS11; test: Transmission electron microscopy of treated GC; format: cell-based; conditions: AMP 10 μg/mL or azithromycin 0.5 μg/mL, four hours
# Text: The bars represented the means of each group with standard deviations.
# [5] = system: WHO gonococcal reference strain Z (WHO Z); conditions: GCP broth, 10^5 CFU/mL, 24 h, 37°C, 5% CO2, lowest concentration reducing >=90% of bacteria vs non-AMP control, means of three independent experiments
# Experimental: (§2) The synthetic AMP (Table 1) were purchased (Mission Bio, Taipei, Taiwan), and the inhibition activity test against GC was adapted from Bergman et al.. Briefly, GC were suspended in GCP broth to a concentration of 105 colony-forming units (CFU)/mL, and 180 μL of this suspension was added to each well of a 96-well plate with 20 μL peptide solution at various concentrations. The final concentration of AMP in each well ranged from 0.08 to 20 μg/mL. The samples were incubated at 37°C with 5% CO2 for 24 hours. After the incubation, 10 μL of the suspension from each well was spotted on GCK agar plates.
# [6] = system: Neisseria gonorrhoeae MS11 strain; conditions: 24 h
# Experimental: as §2
# Listeria monocytogenes = conditions: cited from earlier work
# Text: (§3) [26], indicating the low efficacy of TH1-5. Piscidins were reported widely as the broadest teleost-derived AMP against several gram-positive and gram-negative species.
# Vibrio spp. = conditions: 100 μg/mL or above; cited from earlier work
# Text: as §3
# [7] = system: ME180 endocervical epithelial cells; conditions: 24 hours; for Cell survival of ME180 cells vs non-treatment control (CCK-8): 10 μg/mL AMP, three independent experiments
# Experimental: ME180 cells were seeded into 96-well microtiter plates at a 5 × 10^3 cells/well density and incubated for 24 hours. A final concentration of 10 μg/mL of AMP and 0.1% of positive control Triton-X were added to the well and incubated for 24 hours. Next, the Cell Counting Kit-8 (CCK-8) solution (Tools Biotech Inc., New Taipei City, Taiwan) was added and incubated for one hour. The absorbance at 450 nm was measured in each well, and the cytotoxicity level was analyzed according to the manufacturer's instructions.
# GC colonization and infection only start after the GC's adherence to epithelial cells in the reproductive tract. Thus, adherence plays a crucial role in the initial colonization of GC on mucosal surfaces. […] Since these AMP may also affect epithelial cell viability, examining the effects of three AMP on both epithelial cells, and GC adherence is needed. To examine the effects of AMP on epithelial cells, ME180 cells were incubated with or without 10 μg/mL AMP for 24 hours, and the CCK-8 cell viability assay was conducted. Triton-X, a membrane-disrupting agent at a final concentration of […], was administered as a positive control.
# ME180 cells were grown on a 96-well plate, and 10 μg/mL of designated AMP was added with or without inoculating MS11. (A) To measure cell cytotoxicity, cells with or without AMP or 0.1% Triton-X were incubated for 24 hours, and CCK-8 assay was performed to determine the cell survival rate. (B) To evaluate GC adherence, cells with MS11 were incubated for three hours to determine the adherent GC. GC treated with 0.5 μg/mL of azithromycin (AZI) served as a positive control. Non-treated GC was served as control (Ct). The bars represented the means of each group with standard deviations. Statistical significance was determined using a one-way ANOVA followed by post hoc Dunnett's test.
# HT1080 cells = conditions: HT1080, 15 μg/mL or more; cited from earlier work
# HeLa cells = conditions: cited from earlier work
compound,measurement,setting,value
CC[C@H]1OC(=O)[C@H](C)[C@@H](O[C@H]2C[C@@](C)(OC)[C@@H](O)[C@H](C)O2)[C@H](C)[C@@H](O[C@@H]2O[C@H](C)C[C@H](N(C)C)[C@H]2O)[C@](C)(O)C[C@@H](C)CN(C)[C@H](C)[C@@H](O)[C@]1(C)O [Azithromycin],Antibiotic susceptibility,[1],S
same,Reduction of adherent GC compared to the AMP-treated group,[2],significantly higher reduction
same,Antibiotic susceptibility,[3],R
same,Morphological and structural changes of GC (TEM),[4],intact membranes
CO/N=C(\C(=O)N[C@@H]1C(=O)N2C(C(=O)O)=C(CSc3nc(=O)c(=O)[nH]n3C)CS[C@H]12)c1csc(N)n1 [Ceftriaxone],Antibiotic susceptibility,[1],S
same,Antibiotic susceptibility,[3],I
CC[C@H](C)[C@H](NC(=O)CNC(=O)[C@@H]1CCCN1C(=O)[C@@H](NC(=O)[C@H](CS)NC(=O)[C@H](CS)NC(=O)CNC(=O)[C@H](CS)NC(=O)[C@H](CS)NC(=O)[C@H](Cc1ccccc1)NC(=O)[C@H](CCCNC(=N)N)NC(=O)[C@H](CS)NC(=O)[C@H](CCCCN)NC(=O)[C@@H](NC(=O)CN)[C@@H](C)CC)[C@@H](C)O)C(=O)N[C@@H](CS)C(=O)NCC(=O)N[C@H](C(=O)N[C@@H](CS)C(=O)N[C@@H](CS)C(=O)N[C@@H](CCCNC(=N)N)C(=O)N[C@@H](Cc1ccccc1)C(=O)O)C(C)C [TH1-5] (H-GIKCRFCCGCCTPGICGVCCRF-OH; N-terminus and C-terminus assumed),MIC of AMP,[5],>20 µg/mL
same,MIC of AMP,"[6]; MS11 strain, GCP broth, 10^5 CFU/mL, 37°C, 5% CO2, lowest concentration reducing >=90% of bacteria vs non-AMP control, means of three independent experiments",>10 µg/mL
same,Concentration exhibiting antibacterial activity,Listeria monocytogenes,≥ 100 µg/mL
same,Antibacterial activity,Vibrio spp.,not
"CC(C)(C)CC(C)(C)c1ccc(OCCO)cc1 [Triton-X, reference compound]",Decrease in cell survival of ME180 cells (CCK-8),"[7]; positive control, final concentration of 0.01% (0.1% elsewhere in the source)",88%
FFHHIFRGIVHVGKTIHRLVTG [PIS] [listing 1 of 2 here],MIC of AMP,[5],10 µg/mL
FFHHIFRGIVHVGKTIHRLVTG [PIS] [listing 2 of 2 here],Cell survival of ME180 cells vs non-treatment control (CCK-8),[7],No significant difference
FIHHIIGGLFSAGKAIHRLIRRRRR [TP4] [listing 1 of 2 here],MIC of AMP,[5],10 µg/mL
FIHHIIGGLFSAGKAIHRLIRRRRR [TP4] [listing 2 of 2 here],Cell survival of ME180 cells vs non-treatment control (CCK-8),[7],No significant difference
FIHHIIGGLFSVGKHIHSLIHGH [TP3],MIC of AMP,[5],>20 µg/mL
same,MIC of AMP,[6],>10 µg/mL
Pardaxin,Inhibition of cells,HT1080 cells,not
same,Concentration inhibiting cells,HeLa cells,≥ 15 µg/mL

# — article PMC11056026, “The Evaluation of Teleost-Derived Antimicrobial Peptides Against Neisseria gonorrhoeae” (Cureus, 2024)
